Experimental data published in patent US12195476B2, “Synthesis method of furoimidazopyridine compound, crystal form of furoimidazopyridine compound, and crystal form of salt thereof” (HANGZHOU HIGHLIGHTLL PHARMACEUTICAL CO., LTD, priority 2019, dated 2025).

Assays:
JAK1 = JAK1 (Homo sapiens, UniProt P23458); conditions: result in words; cited from earlier work
TYK2 = biological target: T1, TYK2 (Homo sapiens, UniProt P29597); experiment: TYK2 biochemical test (33P-ATP filter binding kinase assay, Reaction Biology Corp); conditions: 2 hours at room temperature
T1 construct: purchased Reaction Biology Corp, Malvern, PA (contract test)
T1 sequence (P29597 whole entry): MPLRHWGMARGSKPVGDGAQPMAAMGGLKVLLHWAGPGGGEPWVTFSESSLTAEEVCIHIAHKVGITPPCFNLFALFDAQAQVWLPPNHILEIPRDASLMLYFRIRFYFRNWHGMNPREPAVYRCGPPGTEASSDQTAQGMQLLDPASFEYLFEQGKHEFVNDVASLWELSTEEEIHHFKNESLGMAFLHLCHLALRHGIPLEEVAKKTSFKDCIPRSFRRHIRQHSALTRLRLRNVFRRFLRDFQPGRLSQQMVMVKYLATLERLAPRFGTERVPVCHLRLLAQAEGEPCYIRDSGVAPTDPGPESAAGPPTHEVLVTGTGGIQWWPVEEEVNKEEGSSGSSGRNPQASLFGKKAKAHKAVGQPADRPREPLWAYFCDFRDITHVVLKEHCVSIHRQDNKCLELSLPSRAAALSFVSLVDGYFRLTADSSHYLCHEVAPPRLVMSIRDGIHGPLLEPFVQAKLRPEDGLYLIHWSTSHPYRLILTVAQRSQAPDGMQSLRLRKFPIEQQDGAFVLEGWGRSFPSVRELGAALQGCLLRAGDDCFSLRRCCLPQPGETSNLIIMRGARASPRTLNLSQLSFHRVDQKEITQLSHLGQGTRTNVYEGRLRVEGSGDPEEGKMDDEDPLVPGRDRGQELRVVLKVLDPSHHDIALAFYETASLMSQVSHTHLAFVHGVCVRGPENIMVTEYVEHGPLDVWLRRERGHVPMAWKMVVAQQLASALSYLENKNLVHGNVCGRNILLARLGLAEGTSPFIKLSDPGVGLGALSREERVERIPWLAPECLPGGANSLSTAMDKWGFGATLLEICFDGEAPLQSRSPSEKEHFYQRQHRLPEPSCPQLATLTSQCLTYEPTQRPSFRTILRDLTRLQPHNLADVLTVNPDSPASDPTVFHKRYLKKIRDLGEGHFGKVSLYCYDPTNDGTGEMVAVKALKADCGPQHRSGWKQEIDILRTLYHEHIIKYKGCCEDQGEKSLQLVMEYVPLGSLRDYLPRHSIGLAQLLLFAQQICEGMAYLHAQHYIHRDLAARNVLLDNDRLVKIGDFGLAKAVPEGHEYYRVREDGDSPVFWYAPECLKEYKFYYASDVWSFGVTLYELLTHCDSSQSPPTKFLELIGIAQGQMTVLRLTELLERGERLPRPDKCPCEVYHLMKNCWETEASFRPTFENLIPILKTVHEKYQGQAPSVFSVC
Method: An appropriate amount of a compound of formula I was weighed for TYK2 biochemical test.
The test was conducted by Reaction Biology Corp, Malvern, PA (Anastassiadis et al. Nat Biotechnol. 2011; 29(11):1039-45). The step is briefly described as follows.
Basic reaction buffer: 20 mM Hepes (pH 7.5), 10 mM MgCl2, 1 mM EGTA, 0.02% Brij35, 0.02 mg/ml BSA, 0.1 mM Na3VO4, 2 mM DTT and 1% DMSO. The required cofactor was added to each kinase reaction respectively.
• 1. Preparing the designated substrate in the newly prepared basic reaction buffer; • 2. Transferring the required cofactor to the above matrix solution; • 3. Transferring the designated kinase to the substrate solution and mixing well slightly; • 4. Transferring a compound of formula I in DMSO to the kinase reaction mixture with Acoustic technique (Echo550; nanoliter range), culturing for 20 minutes at room temperature; • 5. Introducing ^33P-ATP (specific activity: 10 μCi/μl) to the reaction mixture to trigger a reaction; • 6. Culturing at room temperature and conducting a kinase reaction for 2 hours; • 7. Plotting the reaction on P81 ion exchange paper; • 8. Testing the kinase activity with a filter binding assay.

[1] = system: IL-6-induced STAT3 phosphorylation; conditions: result in words; cited from earlier work
[2] = system: thrombopoietin-induced STAT3 phosphorylation; conditions: result in words; cited from earlier work

Sequence of JAK1 (P23458 whole entry): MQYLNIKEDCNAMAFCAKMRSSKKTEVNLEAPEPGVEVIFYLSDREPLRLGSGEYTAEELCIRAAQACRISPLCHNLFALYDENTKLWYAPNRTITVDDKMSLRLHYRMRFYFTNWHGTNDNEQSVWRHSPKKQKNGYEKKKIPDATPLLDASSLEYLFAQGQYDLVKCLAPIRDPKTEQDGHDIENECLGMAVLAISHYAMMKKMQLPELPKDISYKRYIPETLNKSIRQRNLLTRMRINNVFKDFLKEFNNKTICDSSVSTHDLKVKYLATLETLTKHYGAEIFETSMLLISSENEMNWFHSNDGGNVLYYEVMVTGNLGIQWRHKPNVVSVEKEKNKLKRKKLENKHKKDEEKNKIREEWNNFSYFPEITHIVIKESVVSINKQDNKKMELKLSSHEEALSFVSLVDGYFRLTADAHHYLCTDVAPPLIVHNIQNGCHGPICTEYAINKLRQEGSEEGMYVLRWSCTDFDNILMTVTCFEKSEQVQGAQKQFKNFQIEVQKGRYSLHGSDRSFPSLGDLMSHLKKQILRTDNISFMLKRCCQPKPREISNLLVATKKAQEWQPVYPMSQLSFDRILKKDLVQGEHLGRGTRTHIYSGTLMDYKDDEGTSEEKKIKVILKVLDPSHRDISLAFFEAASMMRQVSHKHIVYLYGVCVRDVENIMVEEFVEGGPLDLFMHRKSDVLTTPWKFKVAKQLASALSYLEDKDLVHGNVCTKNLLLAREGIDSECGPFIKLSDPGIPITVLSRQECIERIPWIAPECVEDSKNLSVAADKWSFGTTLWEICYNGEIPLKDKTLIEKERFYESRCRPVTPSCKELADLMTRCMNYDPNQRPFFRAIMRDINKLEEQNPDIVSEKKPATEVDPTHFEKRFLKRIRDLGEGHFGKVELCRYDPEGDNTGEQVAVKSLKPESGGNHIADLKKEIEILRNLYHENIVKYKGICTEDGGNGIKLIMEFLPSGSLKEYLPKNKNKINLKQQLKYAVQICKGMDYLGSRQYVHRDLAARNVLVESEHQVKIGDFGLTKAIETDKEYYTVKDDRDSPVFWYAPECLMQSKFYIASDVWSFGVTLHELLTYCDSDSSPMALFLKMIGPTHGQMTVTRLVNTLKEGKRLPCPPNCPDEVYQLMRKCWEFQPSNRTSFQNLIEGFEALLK

C[C@@H](O)c1nc2cnc3ccoc3c2n1[C@H]1CC[C@H](CC#N)OC1 [compound I, 2-[(2R,5S)-5-[2-[(R)-1-hydroxyethyl]furo[3,2-b]imidazo[4,5-d]pyridin-1-yl]tetrahydropyran-2-yl]acetonitrile]
JAK1 inhibition (JAK1): potent and selective JAK1 inhibitor
IC50 (TYK2): < 10 nM
inhibition of IL-6-induced STAT3 phosphorylation [1]: demonstrated selective inhibition
inhibition of thrombopoietin-induced STAT3 phosphorylation [2]: did not show selective inhibition
